# Target: cellular IDO1 in HeLa cells (Homo sapiens (Human), UniProt P14902)
# Test: HeLa Cell-Based IDO1 Kyn (Kynurenine) Production Assay
# Conditions: IFN-γ induced IDO1, 48 hours incubation, Kyn absorbance at 480 nm
# Method: HeLa Cell-Based IDO1 Kyn (Kynurenine) Production Assay:
# The inhibitory activity of IDO1 inhibitors is determined by using a colorimetric reaction to measure Kyn generated from L-Trp (L-Tryptophon) oxidation by cellular IDO1 in HeLa cells after induction of IDO1 expression by IFN-γ.
# Hela cells were obtained from the American Type Culture Collection and recovered in 10% FBS-containing phenol red-free DMEM medium. Cells were plated onto a 96-well plate (100 μl/well) at 8000 cells per well and kept at 37° C. in a humidified incubator supplied with 5% CO2. 4 hours later, Human recombinant IFN-γ (8901SC, CST) was added to cells (final concentration 100 ng/mL) to stimulate endogenous IDOL. Compounds at different concentrations diluted in dimethylsulfoxide (DMSO) were added simultaneously with IFN-γ and 0.4 mM L-Trp. Cells were kept at 37° C. in a humidified incubator supplied with 5% CO2. After 48 hours of incubation, 100 μl supernatant from each well was removed to a new plate. The protein in the medium was precipitated with the addition of 8 μl 6N trichloroacetic acid. The plate was incubated at 60° C. for 30 minutes and then centrifugation at 2500 rpm for 10 minutes to remove sediments. 80 μl supernatants were carefully removed to a new clean plate and added with an equal volume of 2% 4-(Dimethylamino)benzaldehyde (D2004, sigma) dissolved in glacial acetic acid. The absorbance at 480 nm wavelength derived from Kyn was measured using a PHERAstar FS plate reader (BMG LABTECH). The IC5C for each compound was derived from fitting the dose-response data to the four-parameter logistic model by using XLfit software (IDBS).
# Chain of cellular IDO1 in HeLa cells (P14902 whole entry): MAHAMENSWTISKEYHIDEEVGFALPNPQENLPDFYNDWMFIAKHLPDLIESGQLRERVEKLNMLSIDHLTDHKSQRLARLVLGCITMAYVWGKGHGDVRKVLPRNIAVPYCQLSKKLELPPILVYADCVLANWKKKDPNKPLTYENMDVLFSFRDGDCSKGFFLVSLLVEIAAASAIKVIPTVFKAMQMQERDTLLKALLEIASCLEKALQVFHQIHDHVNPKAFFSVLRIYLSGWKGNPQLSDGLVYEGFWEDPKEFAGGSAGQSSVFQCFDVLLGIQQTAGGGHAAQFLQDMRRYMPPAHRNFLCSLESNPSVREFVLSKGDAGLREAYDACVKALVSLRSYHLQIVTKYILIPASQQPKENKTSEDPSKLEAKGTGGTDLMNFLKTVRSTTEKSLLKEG
row,EC50 [nM],Compound
1,0.96,Cc1noc(-c2ccc3nc([C@@H](C)[C@H]4CC[C@@H](c5ccnc6ccc(F)cc65)CC4)[nH]c3c2)n1 [B149]
2,10.9,CC(c1nc2c(ccc3ncccc32)[nH]1)[C@H]1CC[C@@H](c2ccnc3ccc(F)cc32)CC1 (stereo partly shown) [B150]
3,3.1,C[C@@H](c1nc2cc(-c3ccccc3)c(F)cc2[nH]1)[C@H]1CC[C@@H](c2ccnc3ccc(F)cc32)CC1 [B156]
4,1.6,CCOC(=O)c1ccc2[nH]c(C(C)[C@H]3CC[C@@H](c4ccnc5ccc(F)cc54)CC3)nc2c1 (stereo partly shown) [B161]
5,4.86,CC(C)OC(=O)c1ccc2nc(C(C)[C@H]3CC[C@@H](c4ccnc5ccc(F)cc54)CC3)[nH]c2c1 (stereo partly shown) [B168]
6,2.9,CC(C)OC(=O)c1ccc2nc([C@H](C)[C@H]3CC[C@@H](c4ccnc5ccc(F)cc54)CC3)[nH]c2c1 [B176]
7,6.9,COC(=O)c1cc(C)c2[nH]c(C(C)C3CCC(c4ccnc5ccc(F)cc45)CC3)nc2c1 (stereo not shown) [B177]
8,2.7,CC(c1nc2cc(-c3ccccc3)c(F)cc2[nH]1)C1CCC(c2ccnc3ccc(F)cc23)CC1 (stereo not shown) [B181]
9,1.14,COC(=O)c1ccc2nc(C(C)[C@H]3CC[C@@H](c4ccnc5ccc(F)cc54)CC3)[nH]c2c1F (stereo partly shown) [B191]
10,> 1000,COC(=O)c1cccc2nc([C@@H](C)[C@H]3CC[C@@H](c4ccnc5ccc(F)cc54)CC3)[nH]c12 [B208]
11,1.8,COC(=O)c1cc2nc(C(C)[C@H]3CC[C@@H](c4ccnc5ccc(F)cc54)CC3)[nH]c2c(F)c1F (stereo partly shown) [B213]
12,84,CC(c1nc2ccc(C(=O)NC3COC3)cc2[nH]1)[C@H]1CC[C@@H](c2ccnc3ccc(F)cc32)CC1 (stereo partly shown) [B214]
13,1.8,C[C@@H](c1nc2cc(-c3ccccc3)c(F)cc2[nH]1)[C@H]1CC[C@@H](c2ccnc3ccc(F)cc32)CC1 [B218]
14,13.7,C[C@H](c1nc2cc(-c3ccccc3)c(F)cc2[nH]1)[C@H]1CC[C@@H](c2ccnc3ccc(F)cc32)CC1 [B219]

# Further lines, the compound ahead of its results:
row,Compound,EC50 [nM]
1,"Fc1ccc2nccc(C3CCC(c4nc5cc(Cl)c(F)cc5[nH]4)CC3)c2c1 (single isomer, unassigned) [Example C1a, 4-(4-(5-chloro-6-fluoro-1H-benzo[d]imidazol-2-yl)cyclohexyl)-6-fluoroquinoline]",> 10000
2,"Fc1ccc2nccc(C3CCC(c4nc5cc(Cl)c(F)cc5[nH]4)CC3)c2c1 (single isomer, unassigned) [Example C1b, 4-(4-(5-chloro-6-fluoro-1H-benzo[d]imidazol-2-yl)cyclohexyl)-6-fluoroquinoline]",24
3,C[C@H](c1nc2cc(F)c(-c3cccnc3)cc2[nH]1)[C@H]1CC[C@@H](c2ccnc3ccc(F)cc32)CC1 [B152],62.9
4,C[C@@H](c1nc2cc(C(=O)NC3CC3)c(F)cc2[nH]1)[C@H]1CC[C@@H](c2ccnc3ccc(F)cc32)CC1 [B158],6.9
5,CC(c1nc2c(ccc3ccccc32)[nH]1)[C@H]1CC[C@@H](c2ccnc3ccc(F)cc32)CC1 (stereo partly shown) [B175],1.7
6,Cc1cc(C(=O)NC2CCC2)cc2nc([C@H](C)[C@H]3CC[C@@H](c4ccnc5ccc(F)cc54)CC3)[nH]c12 [B187],17.1
7,Cc1cc(C(=O)NC2CCC2)cc2nc([C@@H](C)[C@H]3CC[C@@H](c4ccnc5ccc(F)cc54)CC3)[nH]c12 [B188],788
8,CC(c1nc2cc(C(=O)NC3CC3)c(F)c(F)c2[nH]1)[C@H]1CC[C@@H](c2ccnc3ccc(F)cc32)CC1 (stereo partly shown) [B192],8.97
9,"Fc1ccc2nccc([C@H]3CC[C@H](Cc4nc5cc(C(F)(F)F)ccc5[nH]4)CC3)c2c1 [Example A3a, 6-fluoro-4-((1s,4s)-4-((5-(trifluoromethyl)-1H-benzo[d]imidazol-2-yl)methyl)cyclohexyl)quinoline]",72
10,"Fc1ccc2nccc([C@H]3CC[C@@H](Cc4nc5cc(C(F)(F)F)ccc5[nH]4)CC3)c2c1 [Example A3b, 6-fluoro-4-((1r,4r)-4-((5-(trifluoromethyl)-1H-benzo[d]imidazol-2-yl)methyl)cyclohexyl)quinoline]",6.8
11,"CC(C)c1ccc2[nH]c(C[C@H]3CC[C@H](c4ccnc5ccc(F)cc54)CC3)nc2c1 [Example A5a, 6-fluoro-4-((1r,4r)-4-((5-isopropyl-1H-benzo[d]imidazol-2-yl)methyl)cyclohexyl)quinoline]",184
12,"CC(C)c1ccc2[nH]c(C[C@H]3CC[C@@H](c4ccnc5ccc(F)cc54)CC3)nc2c1 [Example A5b, 6-fluoro-4-((1s,4s)-4-((5-isopropyl-1H-benzo[d]imidazol-2-yl)methyl)cyclohexyl)quinoline]",23
13,"Fc1ccc2nccc([C@H]3CC[C@H](Cc4nc5cc6c(cc5[nH]4)OCO6)CC3)c2c1 [Example A7a, 6-(((1r,4r)-4-(6-fluoroquinolin-4-yl)cyclohexyl)methyl)-5H-[1,3]dioxolo[4′,5′:4,5]benzo[1,2-d]imidazole]",87
14,"Fc1ccc2nccc([C@H]3CC[C@@H](Cc4nc5cc6c(cc5[nH]4)OCO6)CC3)c2c1 [Example A7b, 6-(((1s,4s)-4-(6-fluoroquinolin-4-yl)cyclohexyl)methyl)-5H-[1,3]dioxolo[4′,5′:4,5]benzo[1,2-d]imidazole]",3.6
15,"Fc1ccc2nccc([C@H]3CC[C@H](Cc4nc5cc(OC6CC6)ccc5[nH]4)CC3)c2c1 [Example A8a, 4-((1r,4r)-4-((5-cyclopropoxy-1H-benzo[d]imidazol-2-yl)methyl)cyclohexyl)-6-fluoroquinoline]",528
16,"Fc1ccc2nccc([C@H]3CC[C@@H](Cc4nc5cc(OC6CC6)ccc5[nH]4)CC3)c2c1 [Example A8b, 4-((1s,4s)-4-((5-cyclopropoxy-1H-benzo[d]imidazol-2-yl)methyl)cyclohexyl)-6-fluoroquinoline]",50
17,"Cc1c(Br)ccc2[nH]c(C[C@H]3CC[C@H](c4ccnc5ccc(F)cc54)CC3)nc12 [Example A11a, 4-((1r,4r)-4-((5-bromo-4-methyl-1H-benzo[d]imidazol-2-yl)methyl)cyclohexyl)-6-fluoroquinoline]",135
18,"Cc1c(Br)ccc2[nH]c(C[C@H]3CC[C@@H](c4ccnc5ccc(F)cc54)CC3)nc12 [Example A11b, 4-((1s,4s)-4-((5-bromo-4-methyl-1H-benzo[d]imidazol-2-yl)methyl)cyclohexyl)-6-fluoroquinoline]",14
19,"Fc1ccc2nccc(C3CCC(Cc4nc5cc(CN6CCCCC6)ccc5[nH]4)CC3)c2c1 (stereo not shown) [Example A15, 6-fluoro-4-(4-((5-(piperidin-1-ylmethyl)-1H-benzo[d]imidazol-2-yl)methyl)cyclohexyl)quinoline]",1950
20,"Fc1ccc2nccc(C3CCC(Cc4nc5cc(N6CCCCC6)c(Br)cc5[nH]4)CC3)c2c1 (stereo not shown) [Example A16, 4-(4-((6-bromo-5-(piperidin-1-yl)-1H-benzo[d]imidazol-2-yl)methyl)cyclohexyl)-6-fluoroquinoline]",251
21,"COc1cc2nc(CC3CCC(c4ccnc5ccc(F)cc45)CC3)[nH]c2cc1Br (stereo not shown) [Example A17, 4-(4-((6-bromo-5-methoxy-1H-benzo[d]imidazol-2-yl)methyl)cyclohexyl)-6-fluoroquinoline]",5
22,"Fc1ccc(C2CCC(Cc3nc4cc(Cl)ccc4[nH]3)CC2)c2ncccc12 (stereo not shown) [Example A24, 8-(4-((5-chloro-1H-benzo[d]imidazol-2-yl)methyl)cyclohexyl)-5-fluoroquinoline]",158
23,"Fc1ccc(C2CCC(Cc3nc4cc(C5CC5)ccc4[nH]3)CC2)c2cccnc12 (stereo not shown) [Example A25, 5-(4-((5-cyclopropyl-1H-benzo[d]imidazol-2-yl)methyl)cyclohexyl)-8-fluoroquinoline]",268
24,"Fc1cc2nc(C[C@H]3CC[C@H](c4ccc(F)c5ncccc54)CC3)[nH]c2cc1F [Example A26a, 5-((1r,4r)-4-((5,6-difluoro-1H-benzo[d]imidazol-2-yl)methyl)cyclohexyl)-8-fluoroquinoline]",466
25,"Fc1cc2nc(C[C@H]3CC[C@@H](c4ccc(F)c5ncccc54)CC3)[nH]c2cc1F [Example A26b, 5-((1s,4s)-4-((5,6-difluoro-1H-benzo[d]imidazol-2-yl)methyl)cyclohexyl)-8-fluoroquinoline]",205
26,"Clc1ccc2[nH]c(CC3CCC(c4ccncc4)CC3)nc2c1 (stereo not shown) [Example A28, 5-chloro-2-((4-(pyridin-4-yl)cyclohexyl)methyl)-1H-benzo[d]imidazole]",1810
27,"FC(F)(F)c1cc(C2CCC(Cc3nc4cc(Cl)ccc4[nH]3)CC2)ccn1 (stereo not shown) [Example A29, 5-chloro-2-((4-(2-(trifluoromethyl)pyridin-4-yl)cyclohexyl)methyl)-1H-benzo[d]imidazole]",179
28,"c1ccc(C2CCC(Cc3nc4cc(C5CC5)ccc4[nH]3)CC2)cc1 (stereo not shown) [Example A31, 5-cyclopropyl-2-((4-phenylcyclohexyl)methyl)-1H-benzo[d]imidazole]",115
29,"Clc1ccc2[nH]c(C3C4CCC(c5ccccc5)CC43)nc2c1 (stereo not shown) [Example A36, 5-chloro-2-(3-phenylbicyclo[4.1.0]heptan-7-yl)-1H-benzo[d]imidazole]",1670
